{"source": "patent US20140377346A1", "about": "“BOSENTAN CONTROLLED RELEASE ORAL PREPARATION” (HANALL BIOPHARMA CO., LTD., priority 2012, published 2014)", "origin": "cited, not measured here", "note": "Like-named read-outs stand apart in the source and are kept apart here."}
{"compound": "COc1ccccc1Oc1c(NS(=O)(=O)c2ccc(C(C)(C)C)cc2)nc(-c2ncccn2)nc1OCCO", "note": "[bosentan, 4-tert-butyl-N-[6-(2-hydroxy-ethoxy)-5-(2-methoxy-phenoxy)-2-(pyrimidin-2-yl)-pyrimidin-4-yl]-benzenesulfonamide]", "values": [{"measurement": "water needed to dissolve 0.1 mg of bosentan", "setting": "pH 1.0", "value": "≥ 100", "unit": "mL"}, {"measurement": "water needed to dissolve 0.1 mg of bosentan", "setting": "pH 5.0", "value": "≥ 50", "unit": "mL"}, {"measurement": "water needed to dissolve 0.1 mg of bosentan", "setting": "pH 7.5", "value": "approximately 0.3 ml"}]}
